From patent US20210315893A1 (Galapagos NV, priority 2017, published 2021)

Legend:
[1] = biological target: T1, human GPCR sphingosine 1-phosphate receptor 2 (Homo sapiens, UniProt O95136); test: S1PR2 antagonist Ca2+ flux assay; type: cell-based; details: antagonist mode, CHO-S1PR2 cells, S1P at EC80, Ca2+ fluorescence; read-out: S1P2 EC50 (nM), S1P2 antagonist EC50
T1 construct: host or cells: CHO
Outline: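 CHO cells stably expressing human S1PR2, serum-starved 1 h, Fluo8-loaded; compound-evoked Ca2+ fluorescence read 3 min (agonist mode), then after 15 min S1P at EC80 added and read 3 min (antagonist mode). Max/baseline fluorescence ratios normalised to vehicle and S1P EC100 or EC50 controls; EC50 derived.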

[2] = biological target: T2, human GPCR sphingosine 1-phosphate receptor 1 (Homo sapiens, UniProt P21453); test: S1PR1 selectivity Ca2+ flux assay (antagonist readout); type: cell-based; details: antagonist readout, CHO cells overexpressing human S1PR1 and Gq, S1P at EC80 (6 nM); read-out: S1P1 EC50 (nM), S1P1 antagonist EC50
T2 construct: host or cells: CHO
T2 sequence (P21453 whole entry): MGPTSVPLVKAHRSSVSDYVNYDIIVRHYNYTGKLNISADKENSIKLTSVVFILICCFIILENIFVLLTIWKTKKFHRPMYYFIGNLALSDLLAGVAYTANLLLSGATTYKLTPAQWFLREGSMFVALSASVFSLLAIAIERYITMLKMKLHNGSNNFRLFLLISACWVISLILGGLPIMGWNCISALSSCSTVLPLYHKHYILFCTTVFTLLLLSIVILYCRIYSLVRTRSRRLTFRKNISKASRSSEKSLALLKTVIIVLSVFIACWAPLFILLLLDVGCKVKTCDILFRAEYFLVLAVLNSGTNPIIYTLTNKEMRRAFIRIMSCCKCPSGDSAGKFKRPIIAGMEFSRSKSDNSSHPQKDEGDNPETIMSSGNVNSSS
Outline: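 CHO cells stably overexpressing human S1PR1, starved 1 h in 0.1% FAF BSA medium, then Fluo 8 dye-loaded. Compound added, then after 15 min at 37 °C, S1P-evoked Ca2+ flux recorded. Maximal signal/background ratio normalized to controls as % inhibition; IC50 from four-parameter logistic fit.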

[3] = biological target: T3, human GPCR sphingosine 1-phosphate receptor 5 (Homo sapiens, UniProt Q9H228); test: S1PR5 selectivity Ca2+ flux assay (antagonist readout); type: cell-based; details: CHO cells overexpressing human S1PR5 and Gq, agonist at EC80 (20 nM), read-out: S1P5 EC50 (nM), S1P5 antagonist EC50
T3 construct: host or cells: CHO
T3 sequence (Q9H228 whole entry): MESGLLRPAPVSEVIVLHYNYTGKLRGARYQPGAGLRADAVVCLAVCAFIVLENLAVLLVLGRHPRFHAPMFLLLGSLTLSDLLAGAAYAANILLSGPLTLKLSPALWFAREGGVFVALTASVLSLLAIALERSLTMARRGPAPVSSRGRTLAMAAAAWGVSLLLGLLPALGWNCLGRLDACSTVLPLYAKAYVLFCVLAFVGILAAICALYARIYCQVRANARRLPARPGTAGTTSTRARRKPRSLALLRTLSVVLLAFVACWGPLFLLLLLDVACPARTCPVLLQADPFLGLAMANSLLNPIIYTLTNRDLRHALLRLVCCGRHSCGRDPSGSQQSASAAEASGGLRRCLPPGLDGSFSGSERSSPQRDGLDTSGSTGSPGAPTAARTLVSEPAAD
Outline: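 CHO cells stably coexpressing human S1PR5 and Gq were serum-starved, Fluo 8-loaded and preincubated 15 min at 37° C with compound. They were then stimulated at EC80 with an S1PR5-specific agonist, and calcium fluorescence was recorded for 3 min. Peak/baseline ratios were normalized to controls and fitted to a four-parameter IC50 equation.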

S1PR2 = biological target: T4, S1PR2 (Homo sapiens, UniProt O95136); test: S1PR2 binding assay (competition with radioactively labeled S1P, SpA); details: membranes from stable cell line over expressing S1PR2, SpA beads; read-out: S1P2 EC50 (nM), S1PR2 binding EC50
T4 construct: expressed in transfected cells
T4 sequence (O95136 whole entry): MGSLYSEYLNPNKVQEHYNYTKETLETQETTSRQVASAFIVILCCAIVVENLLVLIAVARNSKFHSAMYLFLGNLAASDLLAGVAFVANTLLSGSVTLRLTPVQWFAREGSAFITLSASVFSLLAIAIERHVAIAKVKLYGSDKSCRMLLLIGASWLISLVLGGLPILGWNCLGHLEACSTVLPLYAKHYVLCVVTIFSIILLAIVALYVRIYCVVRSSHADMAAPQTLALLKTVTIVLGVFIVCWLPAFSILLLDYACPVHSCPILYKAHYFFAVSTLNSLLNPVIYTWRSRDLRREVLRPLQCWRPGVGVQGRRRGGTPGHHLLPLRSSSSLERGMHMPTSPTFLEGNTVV
Outline: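 Competition with [3H]S1P for membranes from a stable S1PR2-overexpressing cell line, 20 μg/well, captured on PVT-WGA SPA beads, in 20 mM Tris pH 7.5, 10 mM MgCl2, 100 mM NaCl, 0.4% fatty-acid-free BSA, 1 mM Na3VO4. 2 h at room temperature, then centrifugation and scintillation counting.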

HFL-1 cells [4] = test: IL-8 production assay (S1P induced IL-8); type: cell-based; details: Homo sapiens, HFL1; S1P (1 μM) induced IL-8 in HFL-1 cells, starvation medium without HSA; read-out: IL8 EC50
Outline: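 HFL-1 human fetal lung fibroblasts were starved in F12K/1% FBS, then given compound for 1 h (10-point, 1/3 dilution, 30 μM top, 0.3% DMSO final). S1P was added at 1 μM final for 16–24 h at 37 °C, and secreted IL-8 in supernatant quantified by ELISA.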

HFL-1 cells [5] = test: IL8 assay in the presence of Human Serum Albumin; details: HFL1, read-out: HSA IL8 EC50

T1 sequence (O95136 whole entry): as above

SMILES | EC50 [1] [nM] | EC50 [2] [nM] | EC50 [3] [nM] | EC50 (S1PR2) [nM] | EC50 (HFL-1 cells [4]) [nM] | EC50 (HFL-1 cells [5]) [nM]
CC(C(=O)O)n1nc(Cc2cn3cc(OCC4CC4)c(C#N)cc3n2)c2ccccc2c1=O (stereo not drawn) [Compound 81, 2-[4-[[7-cyano-6-(cyclopropylmethoxy)imidazo[1,2-a]pyridin-2-yl]methyl]-1-oxo-phthalazin-2-yl]propanoic acid] | 22.6 | ≥ 19800 | 19800 | 120 | 20 | 151
O=C(O)CN1CCC(n2nc(Cc3cn4cc(OCC5CC5)c(Cl)cc4n3)c3ccccc3c2=O)C1 (stereo not drawn) [Compound 87, 2-[3-[4-[[7-chloro-6-(cyclopropylmethoxy)imidazo[1,2-a]pyridin-2-yl]methyl]-1-oxo-phthalazin-2-yl]pyrrolidin-1-yl]acetic acid] | 149 | ≥ 19800 | 19800 | 178 | 283 | 324
N#Cc1cc2[nH]c(Cc3nn(C4CCNC4)c(=O)c4ccccc34)nc2cc1OCC(F)F (stereo not drawn) [Compound 64, 6-(2,2-difluoroethoxy)-2-[(4-oxo-3-pyrrolidin-3-yl-phthalazin-1-yl)methyl]-3H-benzimidazole-5-carbonitrile] | 137 | ≥ 19800 | 19800 | 131 | 25.6 | 33.5
COCCOc1cc2nc(Cc3nn(C4CCNC4)c(=O)c4ccccc34)[nH]c2cc1Cl (stereo not drawn) [Compound 67, 4-[[6-chloro-5-(2-methoxyethoxy)-1H-benzimidazol-2-yl]methyl]-2-pyrrolidin-3-yl-phthalazin-1-one] | 37.4 | ≥ 19800 | 19800 | 64.9 | 9.07 | 19.2
CC(F)(F)COc1cc2nc(Cc3nn(CC(=O)N4CCOCC4)c(=O)c4ccccc34)[nH]c2cc1C#N [Compound 52, 6-(2,2-difluoropropoxy)-2-[[3-(2-morpholino-2-oxo-ethyl)-4-oxo-phthalazin-1-yl]methyl]-3H-benzimidazole-5-carbonitrile] | 11.6 | ≥ 19800 | 19800 | 105 | 46.7 | 50
O=C(O)c1nn(Cc2cn3cc(OCC4CC4)c(Cl)cc3n2)c2ccccc2c1=O [Compound 85, 1-[[7-chloro-6-(cyclopropylmethoxy)imidazo[1,2-a]pyridin-2-yl]methyl]-4-oxo-cinnoline-3-carboxylic acid] | 37.4 | ≥ 19800 | 19800 | 619 | 78.9 | 2280
N#Cc1cc2[nH]c(Cn3nc(CC(=O)N4CCOCC4)c(=O)c4ccccc43)nc2cc1OCC(F)F [Compound 49, 6-(2,2-Difluoro-ethoxy)-2-[3-(2-morpholin-4-yl-2-oxo-ethyl)-4-oxo-4H-cinnolin-1-ylmethyl]-3H-enzoimidazole-5-carbonitrile] | 32.8 | ≥ 19800 | 19800 | 92.7 | 31.7 | 47.1
N#Cc1cc2[nH]c(Cc3nn(C4CNC4)c(=O)c4ccccc34)nc2cc1OCC(F)F [Compound 68, 2-[[3-(azetidin-3-yl)-4-oxo-phthalazin-1-yl]methyl]-6-(2,2-difluoroethoxy)-3H-benzimidazole-5-carbonitrile] | 547 | ≥ 19800 | 19800 | 275 | 76.7 | 123

More lines, now with the values ahead:

EC50 [1] [nM] | EC50 [2] [nM] | EC50 [3] [nM] | EC50 (S1PR2) [nM] | EC50 (HFL-1 cells [4]) [nM] | EC50 (HFL-1 cells [5]) [nM] | SMILES
120 | ≥ 19800 | 19800 | 221 | 105 | 251 | N#Cc1cc2[nH]c(Cc3nn(CC(=O)N4CC[C@H](O)C4)c(=O)c4ccccc34)nc2cc1OCC(F)F [compound 13, 6-(2,2-difluoro-ethoxy)-2-[[3-[2-[(3S)-3-hydroxy-pyrrolidin-1-yl]-2-oxo-ethyl]-4-oxo-phthalazin-1-yl]methyl]-3H-benzimidazole-5-carbonitrile]
10700 | ≥ 19800 | 19800 | 2490 | 610 | 9950 | N#Cc1cc2nn(Cc3nn(CC(=O)O)c(=O)c4ccccc34)cc2cc1OCC(F)F [compound 8, 2-[4-[[6-cyano-5-(2,2-difluoro-ethoxy)indazol-2-yl]methyl]-1-oxo-phthalazin-2-yl]acetic acid]
19.1 | ≥ 19800 | 19800 | 93.5 | 5.97 | 113 | O=C(O)Cn1nc(Cc2nc3cc(OCC(F)F)c(Cl)cc3[nH]2)c2c(F)ccc(F)c2c1=O [Compound 126, 2-[4-[[6-chloro-5-(2,2-difluoroethoxy)-1H-benzimidazol-2-yl]methyl]-5,8-difluoro-1-oxo-phthalazin-2-yl]acetic acid]
3.45 | 830 | 19800 | 14.1 | 1.86 | 98.9 | O=C(O)c1cn(Cc2nc3cc(OCC4CC4)c(C(F)(F)F)cc3[nH]2)c2ccccc2c1=O [Compound 106, (1-[[5-(cyclopropyl-methoxy)-6-(trifluoromethyl)-1H-benzimidazol-2-yl]methyl]-4-oxoquinoline-3-carboxylic acid)]
31.9 | ≥ 19800 | 19800 | 129 | 42.6 | 64.9 | N#Cc1cc2nc(Cc3nn(CC(=O)N4CCOCC4)c(=O)c4c3CCCC4)[nH]c2cc1OCC(F)F [Compound 164, 6-(2,2-difluoroethoxy)-2-[[3-(2-morpholino-2-oxo-ethyl)-4-oxo-5,6,7,8-tetrahydrophthalazin-1-yl]methyl]-1H-benzimidazole-5-carbonitrile]
19.2 | 560 | 19800 | 299 | 77.3 | 111 | CS(=O)(=O)NC(=O)Cn1nc(Cc2nc3cc(OCC4CC4)c(Cl)cc3[nH]2)c2ccccc2c1=O [Compound 242, 2-[4-[[6-chloro-5-(cyclopropylmethoxy)-1H-benzimidazol-2-yl]methyl]-1-oxo-phthalazin-2-yl]-N-methylsulfonyl-acetamide]
9.25 | ≥ 19800 | 19800 | 30.7 | 1.02 | 14 | O=C(Cc1nn(Cc2nc3cc(OCC(F)F)c(Cl)cc3[nH]2)c2ccccc2c1=O)N1CCOCC1 [Compound 159, 1-[6-Chloro-5-(2,2-difluoro-ethoxy)-1H-benzoimidazol-2-ylmethyl]-3-(2-morpholin-4-yl-2-oxo-ethyl)-1H-cinnolin-4-one]
416 | ≥ 19800 | 19800 | 486 | 74.8 | 210 | N#Cc1cc2nc(Cc3nn(CC(=O)N4CCC[C@H]4CO)c(=O)c4ccccc34)[nH]c2cc1OCC(F)F [Compound 198, 6-(2,2-difluoroethoxy)-2-[[3-[2-[(2S)-2-(hydroxymethyl)pyrrolidin-1-yl]-2-oxo-ethyl]-4-oxo-phthalazin-1-yl]methyl]-1H-benzimidazole-5-carbonitrile]
118 | ≥ 19800 | 19800 | 188 | 160 | 504 | N#Cc1cc2[nH]c(Cc3nn(CC(=O)NC4CCOC4)c(=O)c4ccccc34)nc2cc1OCC(F)F (stereo not drawn) [Compound 178, 2-[4-[[6-cyano-5-(2,2-difluoroethoxy)-1H-benzimidazol-2-yl]methyl]-1-oxo-phthalazin-2-yl]-N-THF-3-yl-acetamide]
8.26 | ≥ 19800 | 19800 | 50.3 | 3.67 | 11.3 | N#Cc1cc2[nH]c(Cc3nn(CC(=O)O)c(=O)c4ccccc34)nc2cc1OCC1CC1 [compound 7, 2-[4-[[6-cyano-5-(cyclopropyl-methoxy)-1H-benzimidazol-2-yl]methyl]-1-oxo-phthalazin-2-yl]acetic acid]
